Key:
[1] = Water solubilization of m-carborane by high speed vibration milling; format: physicochemical
Procedure: m-carborane was mixed with AQUA β (DAISO Co., Ltd.) or sizofuran (SPG) (Mitsui Sugar Co., Ltd.) in the predetermined amounts shown in Table 3 below. The mixture was placed with an agate milling ball in an agate milling jar, and high speed milling was performed with a mixer mill (MM200, Retsch Co., Ltd.) at 25 Hz for 25 minutes. Next, 10,000 parts by weight of water was added to 1 part by weight of the mixture, and the mixture was stirred with a magnetic stirrer at room temperature for two days and further agitated with a vortex mixer for 2 hours. Centrifugation (25° C., 14,000 rpm, 20 minutes) was performed, and the supernatant was filtrated through a 0.45 μm membrane filter. The boron concentration of the filtrate was measured with an ICP atomic emission spectrometer for evaluation of the degree of water solubility.

[2] = Solubilization of single-walled carbon nanotube; format: physicochemical; conditions: in water; estimated from absorbance at 500 nm
Procedure: Preliminary dispersion was performed by dispersing 1.0 mg of a single-walled carbon nanotube (SWNT) (Carbon Nanotechnology, Inc.) in 0.5 mL of DMSO, and performing ultrasonic irradiation. An amount of 1.0 mL of AQUA β (DAISO Co., Ltd.) in a DMSO solution (2.0 mg/mL) was added and ultrasonic irradiation was further performed for 1 hour. The obtained dispersion was added to 1.5 mL of distilled water. To the dispersion, 35 mL of distilled water was further added and the solution was allowed to stand for one day to renature the AQUA β. It was observed by visual inspection that the solution was uniform at that point. Centrifugation (8,000 rpm, 60 minutes) was performed to recover the complex as a precipitate, the supernatant was removed, and the precipitate was redispersed in distilled water. This procedure was repeated 3 times for removal of uncombined polysaccharides and replacement of the solvent with water. Thus a solution in which the SWNT was dispersed in 5 mL of distilled water was obtained.
From the absorbance at 500 nm (Abs500=0.575), the concentration of the dissolved SWNT is estimated at […]. […] The improvement in the dispersibility seems to be attributed to the fact that AQUA β has a higher proportion of side chains than sizofuran.

Substance | Boron concentration relative to solution prepared using sizofuran [1] | Concentration of the dissolved SWNT [2]
β-1,3-1,6-D-glucan [AQUA β] | ≥ 3 times | –
sizofiran | – | 2500 µg/mL

From US8907080B2, “Process for imparting water solubility or water dispersibility to hydrophobic cluster compound” (Daiso Co., Ltd., priority 2009, dated 2014)
